From US10005733B2, “N-(4-hydroxy-4-methyl-cyclohexyl)-4-phenyl-benzenesulfonamide and N-(4-hydroxy-4-methyl-cyclohexyl)-4-(2-pyridyl)-benzenesulfonamide compounds and their therapeutic use” (PIMCO 2664 LIMITED, priority 2014, dated 2018)

Experiments:
J774 macrophages = experiment: Resazurin Macrophage J774 Viability Assay; assay type: cell-based; conditions: Mus musculus, J774, 72 h; footnote (1): 10 point range 30 μM to 1.5 nM, n = 3 per concentration, Grafit; 72 hour incubation
Protocol: Potency was assessed using a viability assay based on the survival of the J774 macrophage cell line. Macrophages are closely related to osteoclasts and have been used previously as a model system for osteoclast survival (see, e.g., Luckman et al., 1998, “Heterocycle-containing bisphosphonates cause apoptosis and inhibit bone resorption by preventing protein prenylation: evidence from structure-activity relationships in J774 macrophages,” J. Bone Miner. Res., Vol. 13, pp. 1668-1678). The model is indicative both of effects on bone protection in diseases such as osteoporosis, osteoarthritis and rheumatoid arthritis, and of effects on inflammation since, like osteoclasts, J774 macrophages are dependent for survival on continued NFκB activation.
In vitro potency of test compounds was determined by incubation with J774 macrophages and subsequent determination of cell viability using resazurin.
Resazurin is a redox dye commonly used as an indicator of viability in cultured cells (see, e.g., Anoopkumar-Dukie, 2005, “Resazurin assay of radiation response in cultured cells”, British Journal of Radiology, Vol. 78, pp. 945-947). It is non-toxic to cells and stable in culture medium, allowing continuous measurement of cell proliferation in vitro as either a kinetic or endpoint assay. The assay is based on the ability of viable, metabolically-active cells to reduce resazurin (which is blue and non-fluorescent) to resorufin and dihydroresorufin (which are red and fluorescent) using electrons from reducing species, such as nicotinamide […] and flavin adenine dinucleotide (FADH). This transformation, from oxidised form to reduced form, can be measured either colorimetrically or fluorometrically. Insults that impair cell viability and proliferation also affects the capacity of cells to reduce resazurin, and the rate of dye reduction is directly proportional to the number of viable cells present.
For fluorescence measurements, 530-560 nm excitation and 590 nm emission wavelengths are typically used. For colorimetric measurements, absorbance at 570 nm (reduced form) and 600 nm (oxidised form) is typically measured. A simple calculation is performed to determine the relative quantities of the two species: a high ratio of resorufin (the reduced form) to resazurin (the oxidised form) is an indicator that cells are proliferating and viable. A low ratio indicates cells that are quiescent or non-viable.
J774 cells were plated at 10^4 cells per well in 100 μL αMEM (α Modified Eagle Medium) in 96-well plates and allowed to adhere overnight. The following day, test compounds were prepared as 100 mM solutions in DMSO. These stock solutions were diluted in DMSO and then diluted 1000× in culture medium (αMEM) before being added directly to the wells so as to give the desired final compound concentration. After a 72 hour incubation at 37° C./5% CO2, resazurin (Alamar Blue, Biosource International) was added to each well (1:10 v/v, 10 μL). The plate was then incubated at 37° C. for 3 hours and fluorescence was measured at 590 nm, with a 25 nm bandwidth.
The average results for each test compound were expressed as a percent (%) of the average control value reflecting cell viability. The average values across the concentrations tested were then plotted and an IC50 was calculated by fitting the data to a 4-parameter IC50 equation using either Graph Pad Prism software for Windows (Graph Pad Software, San Diego Calif. USA) or Grafit version 5 (Erithacus Software). Each experiment was repeated twice and the data are presented as the mean IC50 from both experiments.

[1] = Rodent Pharmacokinetics Studies; assay type: in vivo, rat; conditions: male Han Wistar rats; for i.v. AUC: 1 mg/kg intravenous, 5% DMSO/10% solutol in saline; for bioavailability: rat, plasma, 5 mg/kg, oral in 0.5% CMC/0.1% Tween-80, i.v. in 5% DMSO/10% solutol in saline, read-out: Bioavail, F (%)
Protocol: Absorption and metabolic stability were studied using an in vivo pharmacokinetics assay.
[…] […] For compound HMC-C-01-A the oral administration was formulated in 2% dimethylacetamide/20% hydroxypropyl-β-cyclodextrin in water. Animals were given free access to food throughout the study except for fasting overnight and until 2 hours post dose on the day of dosing.
Blood samples were taken from the retro-orbital plexus at the following time points and placed in microtubes containing 20% K2EDTA solution: […]
Blood samples were centrifuged to obtain plasma, which was transferred to a separate container and frozen at −20° C.
For analysis, samples were thawed at room temperature and prepared by protein precipitation with acetonitrile spiked with internal standard (500 ng/mL glipizide) in the ratio 1:4 with plasma. The samples were then vortexed for 5 minutes and centrifuged for 10 minutes at 20,600×g at 4° C. 100 μL of the supernatant was collected for analysis.
The pharmacokinetic parameters for the test compounds were calculated by Phoenix WinNonlin version 6.3 (Pharsight Corp, CA) using standard non-compartmental methods. Peak plasma concentrations (Cmax) and time of the peak plasma concentration (Tmax) were the observed values. The area under the plasma concentration-time curve (AUC) was determined by use of the linear trapezoidal rule up to the last measurable concentration (AUClast) and thereafter by extrapolation of the terminal elimination phase to infinity (AUCinf). The terminal elimination rate constant (kel) was determined by regression analysis of the linear terminal portion of the log plasma concentration-time curve. The elimination phase half-life (t1/2) was calculated as 0.693/kel.

[2] = test system: human primary osteoclasts; experiment: Human Primary Osteoclastogenesis (TRAP-positive multinucleated cells from CD14+ monocytes); assay type: cell-based; conditions: 1 μM; compound added on Day 4 of monocyte differentiation
Protocol: In vitro potency of test compounds was determined by incubating them with human primary monocytes and assessing effects on the formation of mature osteoclasts.
The activity of the compounds in reducing the formation of human primary osteoclasts (osteoclastogenesis) was tested using monocytes derived from human whole blood. Monocytes, which are positive for the cell surface marker CD14, are part of the innate immune system found in the circulation. Peripheral blood monocytes differentiate to form several cell types, including osteoclasts. Human primary osteoclasts were […] macrophage colony-stimulating factor (M-CSF) and RANKL+10% foetal calf serum for approximately 6 days, with the exact duration depending on the individual donor of the cells.
When monocytes are cultured under the conditions described above, they form large, multinucleated cells (osteoclasts), which stain positively for tartrate-resistant acid phosphatase (TRAP). TRAP staining was performed between Days 5-6 of culture depending on the individual donor. Osteoclasts are identified as cells which stain positive for TRAP and contain more than 3 nuclei. Compounds which reduce the number of TRAP-positive cells reduce the formation of osteoclasts. The bisphosphonate compound, alendronate, which is used in the treatment of osteoporosis, is used as a positive control for reducing osteoclastogenesis in this assay.
Effects on osteoclast formation were assessed by staining for TRAP and counting cells containing more than three nuclei in each well under a microscope. This allows the absolute determination of cell number in each treated well.
PBMCs (peripheral blood mononuclear cells) were collected from healthy donors and isolated by centrifugation on a layer of Ficoll Paque (GE Healthcare, UK). Monocytes were then sorted from the PBMCs using an autoMACS Pro Separator (MiltenyiBiotec), which sorts cells depending on the markers present on their cell surface. The resulting CD14+ monocytes were resuspended in αMEM supplemented with 10% FCS, 25 ng/mL M-CSF and 100 ng/ml RANKL and added to a 48-well plate, which was then incubated for up to 6 days at 37° C./5% CO2. […] The medium was replenished every 2 days.
At the end of the culture period, the medium was removed from the cells and the cells were fixed at room temperature and then washed with phosphate-buffered saline. TRAP staining solution was then added and the cells incubated at 37° C. until a red colour had developed, after which the reaction was stopped by rinsing with water. The stained cells were air-dried and then photographed using a conventional microscope and the TRAP-positive multinucleated osteoclasts counted by two independent observers.
The average results (n=6) for each concentration of test compound were averaged between the two observers and then expressed as a fold change versus the average control value. The data were then plotted graphically using software from Grafit (Erithacus Software).

[3] = 5 mg/kg orally, 0.5% CMC/0.1% Tween-80

Row | i.v. AUC [1] [ng/mL/min] | p.o. AUC (ng/mL/min) [1, 3] | bioavailability [1] [%] | p.o. AUC [1, 3] [ng/mL/min] | Compound | IC50 (J774 macrophages) [nM] | % reduction at 1 μM [2] [%]
1 | 963 | 4766 ^(4) ng/mL/min | 50 |  | Cc1cc(S(=O)(=O)NC2CCC(C)(O)CC2)ccc1-c1ccc(F)cc1F (single isomer, unassigned) [REF001, reference compound] | 50 | 
2 | 2142 |  | 55 | 5927 | O=S(=O)(N[C@H]1CC[C@H](O)CC1)c1ccc(-c2ncc(Cl)cc2Cl)cc1 [ABD836, reference compound] | 1450 | 
3 |  |  |  |  | NCCCC(O)(P(=O)(O)O)P(=O)(O)O [Alendronate, alendronate] |  | 12
